Assay results from article PMC6294263 (Stem Cell Reports, 2018).

Assays:
[1] = tested on: hiPSC-CMs (Cor.4U cardiomyocytes); assay: calcium transient-based hiPSC-CM (CTCM) assay with cardiac hazard scoring; conditions: for arrhythmic (EAD-like) events: tested concentrations of Figure 5; for EAD-like events: control drugs at control concentration (E-4031 30 nM, dofetilide 3 nM, cetirizine 1 μM)
Text: Fluorescence imaging of intracellular calcium dynamics (i.e., calcium transients) enabled the evaluation of the spontaneous beating properties of hiPSC-CMs (Figure 2A) using the following parameters: (1) calcium transient duration at 90% of decay following the peak amplitude (CTD90), (2) beat rate (BR) representing the number of calcium transients (i.e., beats) per minute, and (3) amplitude (Amp), representing the difference between the minimum and the maximum (peak) calcium signal.
Effects on hiPSC-CMs were evaluated after a 30-min incubation period and normalized against the respective baseline recording, yielding a Δ% change in CTD90, BR, and Amp.
Cells were cultured with Cor.4U culture medium (Ax-M-HC250) in a humidified incubator at 37°C and 5% CO2, with medium being changed once a day. On the day of the experiment, the culture medium was replaced with Tyrode's solution (Sigma, No. T2397) supplemented with 10 mM HEPES together with KCl to represent isokalemic (4.2 mM K^+) conditions.
Briefly, Cal-520 was incubated for 45 min followed by a washout and a 30-min recovery before starting the experiments.
The spontaneous beating activity of hiPSC-CMs was assessed through measurement of the Ca^2+ fluorescence signal integrated over the whole well.
First, the experimental plates were put into the FDSS/μCell to stabilize for 10 min. Next, a baseline recording was run for 3 min followed by compound addition. The effect of a compound was recorded (5-min recording time) around 15 and 30 min after compound addition. CTD90, BR, and Amp were quantified for baseline and 30-min compound effects as the median value of all beats (calcium transients) measured within a 1-min interval of the recording. The recording around 15 min was used only for observation of EADs or fibrillation-like events. EADs were manually monitored and evaluated. Beat stop was defined after 30 min in case BR was <5 beats/min. Wells that temporarily stopped beating during compound addition but recovered at the 30-min time point were not defined as beat stop.
The responses were measured at baseline and at 30 min.

[2] = tested on: hERG; conditions: no reference given; read-out: half maximal inhibitory concentration [IC50] on hERG; cited from earlier work
[3] = 30-min incubation, reference drugs
[4] = reference drugs, tested concentrations of Figure 5 (selected to cover the therapeutic free Cmax), 30-min incubation
[5] = 3 nM (2-fold free Cmax), 30-min incubation, control drug over numerous studies
[6] = 0.1 μM, 30-min incubation, control drug over numerous studies, the rest in the high hazard zone
[7] = 5 μM (free Cmax), 30-min incubation, control drug over numerous studies

With `CC[C@H]1[C@@H]2C[C@H]3[C@@H]4N(C)c5ccccc5[C@]45C[C@@H]([C@H]2[C@H]5O)N3[C@@H]1O` [Ajmaline] the “arrhythmic (EAD-like) events” value ([1]; reference drugs) was “caused arrhythmic events”.

For `CCN(CC)CCCN(c1ccccc1)C1Cc2ccccc2C1` [Aprindine], the “effect on CTD90” value [1, 3] was “CTD90 prolongation”.

For `CC(C)NCC(O)COc1ccc(CC(N)=O)cc1` (centres unmarked) [Atenolol], the cardiac hazard label [1, 4] was “not identified for any potential hazard”.

In the case of `COC(=O)C1=C(C)NC(C)=C([N+](=O)[O-])C1c1ccccc1C(F)(F)F` (centres unmarked) [BAYK8644], the “effect on amplitude (Amp)” value ([1]; 30-min incubation) is reported as “increase the Amp” and the cardiac hazard label [1, 4] is reported as “high”.

For `C[N+](C)(C)CCOC(N)=O` [Carbachol], the cardiac hazard label [1, 4] was “not identified for any potential hazard”.

With `O=C(O)COCCN1CCN(C(c2ccccc2)c2ccc(Cl)cc2)CC1` (centres unmarked) [Cetirizine] the “studies identified as no hazard” value ([1]; 1 μM (16-fold free Cmax), 30-min incubation, control drug over numerous studies) was 99% and the EAD-like events ([1]; 30-min incubation) was “not observed any EAD-like event”.

For `CN(C)CCCC1(c2ccc(F)cc2)OCc2cc(C#N)ccc21` (centres unmarked) [Citalopram], the cardiac hazard label [1, 4] was “low”.

For `CC(CCc1ccc(O)cc1)NCCc1ccc(O)c(O)c1` (centres unmarked) [Dobutamine], the “effect on beat rate (BR)” value [1, 3] was “strong BR increase” and the cardiac hazard label [1, 4] was “low or high”.

With `CN(CCOc1ccc(NS(C)(=O)=O)cc1)CCc1ccc(NS(C)(=O)=O)cc1` [Dofetilide] the “studies identified as high hazard” value [1, 5] was 14%, the “studies identified as very high hazard” value [1, 5] was 80% and the EAD-like events ([1]; 30-min incubation) was “provoked such EAD-like events”.

In the case of `COc1ccc(C(=O)Nc2ccccc2CCC2CCCCN2C)cc1` (centres unmarked) [Encainide], the “arrhythmic (EAD-like) events” value ([1]; reference drugs) is reported as “caused arrhythmic events”.

With `CN(C)CCC[C@@]1(c2ccc(F)cc2)OCc2cc(C#N)ccc21` [Escitalopram] the cardiac hazard label ([1]; at 3- to 10-fold the free Cmax) was “high”.

With `O=C(Nc1ccc(Oc2ccccc2)cc1)c1cccc([N+](=O)[O-])c1` [ICA-105574] the “effect on CTD90” value [1, 3] was “CTD90 shortening” and the cardiac hazard label [1, 4] was “hazard identification”.

In the case of `CC(C)NCC(O)c1ccc(O)c(O)c1` (centres unmarked) [Isoprenaline], the “studies identified as low hazard” value [1, 6] is reported as 70%, the “effect on amplitude (Amp)” value ([1]; 30-min incubation) is reported as “increase the Amp” and the “effect on beat rate (BR)” value [1, 3] is reported as “strong BR increase”. The cardiac hazard label [1, 4] was “low or high”.

For `COc1cc2c(cc1OC)CC(=O)N(CCCN(C)C[C@H]1Cc3cc(OC)c(OC)cc31)CC2` [Ivabradine], the IC50 [2] is listed as about 2400 nM.

With `CC(C)(Oc1ccc(Cl)cc1)C(=O)NC1C2CC3CC1CC(NS(C)(=O)=O)(C3)C2` (centres unmarked) [JNJ-303] the cardiac hazard label [1, 4] was “cannot be easily detected”.

For `CC1(C)Oc2ccc(C#N)cc2[C@@H](N2CCCC2=O)[C@@H]1O` [Levcromakalim], the “effect on CTD90” value [1, 3] was “CTD90 shortening” and the cardiac hazard label [1, 4] was “potentially hazardous compounds”.

In the case of `CC(=O)c1c(O)c(C)c(O)c(Cc2c(O)c3c(c(C(=O)/C=C/c4ccccc4)c2O)OC(C)(C)C=C3)c1O` [Mallotoxin], the “effect on CTD90” value [1, 3] is reported as “CTD90 shortening” and the cardiac hazard label [1, 4] is reported as “hazard identification”.

For `Cc1cccc(C)c1OCC(C)N` (centres unmarked) [Mexiletine], the cardiac hazard label [1, 4] was “low or high”.

With `O=C(NCCO[N+](=O)[O-])c1cccnc1` [Nicorandil] the cardiac hazard label [1, 4] was “not shown to have any potential hazard risk”.

For `COCCOC(=O)C1=C(C)NC(C)=C(C(=O)OC(C)C)C1c1cccc([N+](=O)[O-])c1` (centres unmarked) [Nimodipine], the “studies identified as low hazard” value [1, 6] was 80% and the “effect on amplitude (Amp)” value ([1]; 30-min incubation) was “strongly decrease the Amp”.

In the case of `Cc1cc2c(s1)Nc1ccccc1N=C2N1CCN(C)CC1` [Olanzapine], the cardiac hazard label ([1]; up to the highest tested concentration (100 nM), around the free Cmax) is reported as “not identified with any hazard”.

For `C[C@@H]1O[C@@H](O[C@H]2C[C@@H](O)[C@]3(CO)[C@H]4[C@H](O)C[C@]5(C)[C@@H](C6=CC(=O)OC6)CC[C@]5(O)[C@@H]4CC[C@]3(O)C2)[C@H](O)[C@H](O)[C@H]1O` [Ouabain], the cardiac hazard label [1, 4] was “high”.

For `O=C1NC(=O)C(c2ccccc2)(c2ccccc2)N1` [Phenytoin], the “studies identified as low hazard” value [1, 7] was 20%, the “studies identified as no hazard” value [1, 7] was 78% and the “incidence of beat stop (% of wells)” value ([1]; 5 μM, 30-min incubation) was at most 50%. The cardiac hazard label [1, 4] was “low or high”.

For `CC(N/C(=N\C#N)Nc1ccncc1)C(C)(C)C` (centres unmarked) [Pinacidil], the “effect on CTD90” value [1, 3] was “CTD90 shortening” and the cardiac hazard label [1, 4] was “potentially hazardous compounds”.

With `CCCNCC(O)COc1ccccc1C(=O)CCc1ccccc1` (centres unmarked) [Propafenone] the “effect on CTD90” value [1, 3] was “CTD90 prolongation”.

For `CCC(=O)O[C@](Cc1ccccc1)(c1ccccc1)[C@H](C)CN(C)C` [Propoxyphene], the “effect on CTD90” value [1, 3] was “CTD90 prolongation”.

With `C=C[C@H]1C[N@@]2CC[C@H]1C[C@@H]2[C@@H](O)c1ccnc2ccc(OC)cc12` [Quinidine] the “arrhythmic (EAD-like) events” value ([1]; reference drugs) was “caused arrhythmic events”.

With `O=C(c1ccc(OCCN2CCCCC2)cc1)c1c(-c2ccc(O)cc2)sc2cc(O)ccc12` [Raloxifene] the “safety margin (tested concentration/free Cmax) at which a hazard was scored” value ([1]; 3–10 μM, negative control drug) was at least 2500 fold the free Cmax and the “concentrations not scored as no hazard” value ([1]; negative control drug, exception to the no hazard scoring) was 3 to 10 µM.

With `CC(C)(C)NCC(O)c1ccc(O)c(CO)c1` (centres unmarked) [Salbutamol] the “effect on beat rate (BR)” value [1, 3] was “strong BR increase” and the cardiac hazard label [1, 4] was “low or high”.

With `O=C1NCCN1CCN1CCC(c2cn(-c3ccc(F)cc3)c3ccc(Cl)cc23)CC1` [Sertindole] the “safety margin (tested concentration/free Cmax) at which very high hazard (arrhythmic events) was scored” value [1] was “approximately 625 fold the free Cmax” and the cardiac hazard label ([1]; 1 μM, 30-min incubation) was “very high”.

For `CCCCCNC(=N)N/N=C/c1c[nH]c2ccc(OC)cc12` [Tegaserod], the cardiac hazard label [1, 4] was “high”.
